Consider four compounds from patent US8017809B2, “Bisboron compound” (Japan Science and Technology Agency, priority 2005, dated 2011).

The assay relates to capacitative calcium entry (CCE) in IP3 receptor-deficient strain of cell line DT40.

Read-outs that look alike come from different tables or passages of the source.
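Note: intracellular Ca2+ read as 340/380 nm excitation ratio at 510 nm emission, stores emptied by thapsigargin without external Ca2+, then 2 mM CaCl2 added, inhibition of the ensuing Ca2+ rise.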

Procedure: (Assay of Capacitative Calcium Entry Inhibition)
Its 510 nm fluorescence obtained at 340 nm and 380 nm is measured and the fluorescence ratio F340/380 is measured to determine the intracellular calcium ion concentration. Next, thapsigargin (an endoplasmic reticulum calcium ion pump inhibitor) is allowed to act without calcium ion in an extracellular fluid to deplete an intracellular calcium store. Calcium chloride at a final concentration of 2 mM is added to the extracellular fluid. The IC50 value is calculated by estimating the effect of each compound on the degree of increase in the intracellular calcium concentration at the time of the addition.

Regarding `NCCOB(c1ccccc1)c1cccc(COCc2ccccc2B(OCCN)c2ccccc2)c1` [Example 15, (2-(Phenylaminoethoxyboryl)benzyl) (3-(phenylaminoethoxyboryl)benzyl) ether], the inhibition worked out at 100% (0.3 µM), 100% (1 µM) and 100% (3 µM).

In the case of `OB(c1ccccc1)c1ccc(COCc2ccccc2B(O)c2ccccc2)cc1` [Example 12, (2-(Phenylhydroxyboryl)benzyl) (4-(phenylhydroxyboryl)benzyl) ether], the inhibition is 10% (0.3 µM), 80% (1 µM) and 100% (3 µM).

Consider `c1ccc(B(OCc2ccccn2)c2ccc(COCc3ccc(B(OCc4ccccn4)c4ccccc4)cc3)cc2)cc1` [Example 88, Bis(4,4′-(phenyl-2-pyridylmethoxyboryl)benzyl) ether], for which the inhibition by setting is: (1 µM) 95%; (3 µM) 100%.

With `COc1ccc(B(OCCN)c2ccc(COCc3ccc(B(OCCN)c4ccc(OC)cc4)cc3)cc2)cc1` [Example 94, Bis(4,4′-(p-methoxyphenyl-aminoethoxyboryl)benzyl) ether], the inhibition (1 µM) came to 0% and the inhibition (3 µM) was found to be 100%.
